Results on one molecule are retold here after US20240269238A1, “Therapeutic Regimens and Methods for Reducing Body Weight in a Subject with Fatty Liver Disease using a GLP-1R and GCGR Agonist” (Spitfire Pharma LLC, priority 2022, published 2024).

In assay [1] the test system is plasma lipids and lipoproteins. The assay is described as follows: Phase 1 study NCT0456124 (Example 2): lipoprotein profiling by NMR and lipidomic profiling by UHPLC-MS. The class given is in vivo, human. The protocol:
To test the lipid-lowering effects of pemvidutide, an analysis of Phase I clinical trial (NCT0456124) data was carried out. The subjects with overweight/obesity (BMI 25-40 kg/m^2) were randomized at 1 site in Australia (NCT0456124). Subjects were randomized 4:1 pemvidutide:placebo, with placebos pooled. […] Lipoprotein and glycoprotein profiling covering 33 lipoprotein related parameters was performed by ^1H-NMR on fasting plasma samples obtained at Day −1 (baseline), Day 43, and Day 84 from the 34 subjects who completed NCT0456124. Lipidomic profiling covering 600 lipid species was performed by ultra-high performance liquid chromatography-mass spectrometry on fasting plasma samples obtained at Day −1 (baseline), Day 43, and Day 84 from the 34 subjects who completed NCT0456124. For the lipid profiling, plasma fractionation was performed either using methanol to extract fatty acyls, bile acids, steroids, and lyso-glycerophospholipids, or using a chloroform/methanol mix to extract glycerolipids, cholesteryl esters, sphingolipids, and glycerophospholipids. Lipid classification followed the classification system proposed by Fahy et al. (J. Lipid Res. 2005; 46:839-861) and the LIPID MAPS initiative (http://www.lipidmaps.org) (see FIG. 8).
The color code represents the log 2 (robust fold-change) with blue colors denoting reduced lipoproteins (negative fold-changes) and red colors denoting increased lipoproteins (positive fold-changes).
Given the observed changes in the total cholesterol, triglycerides and lipoproteins, an evaluation of the serum lipid composition covering 600 lipid species at Day −1 (baseline), Day 43, and Day 84 from the 34 subjects who completed NCT0456124 was performed. Results are presented in FIG. 10 as log 2 pairwise fold change with blue colors denoting a reduction in the lipid relative to baseline, and red an increase. The grey/black bars indicate significant p-values of Wilcoxon test.
The horizontal dashed line represents the lower limit of significance, while the vertical lines show a fold-change from baseline of ±0.75 on the log 2 scale.

Assay [2] relates to alanine aminotransferase (ALT). The assay is described as follows: Phase 1 12-week NAFLD study (Example 1): serum ALT. Type of assay: in vivo, human. Conditions: for ALT reduction: week 12; for decline in serum ALT levels: subjects with baseline serum ALT above 30 IU/L, 12 weeks. The text has this: Provided herein is disclosure of a Phase 1, multicenter, randomized, double-blind, placebo-controlled study to assess the effects of Pemvidutide (also termed herein as ALT-801), the safety of Pemvidutide and effects on hepatic fat fraction, anthropometric parameters, lipid metabolism, inflammatory markers and fibrosis markers in diabetic and non-diabetic (type 2 diabetes) overweight and obese (BMI 28.0 kg/m^2) subjects with NAFLD. This study was designed to assess changes in hepatic fat fraction by MRI-PDFF (magnetic resonance imaging-proton density fat fraction) in diabetic and non-diabetic overweight and obese subjects with NAFLD after 12 weeks of ALT-801 treatment. The trial was conducted without adjunctive diet and exercise interventions. The study assessed changes in body weight, lipid metabolism, metabolic markers, and inflammatory markers and safety and tolerability of ALT-801 after 12 weeks of treatment. Subjects were stratified for the presence or absence of diabetes at baseline. Fibroscan and cT1 assessments evaluated changes in liver inflammatory and fibrotic activity at the end of 12 weeks of treatment.
The study, described in this example, was carried out in 94 subjects overweight and obese (body mass index [BMI] ≥28.0 kg/m^2) Type 2 diabetic and non-diabetic subjects with nonalcoholic fatty liver disease (NAFLD) over about 4.5 months, including up to a 35-day screening period, and 85-day treatment period and a 25-day follow-up period, with treatment with ALT-801 (a composition comprising SEQ ID NO.: 1, “study medication”) or placebo administered by subcutaneous (SC) injection once weekly for up to twelve (12) doses.
The safety objective of this study was to assess the safety and tolerability of ALT-801 in 18-65 years old subjects with NAFLD (NAFLD without significant fibrosis, defined as FibroScan® controlled attenuation parameter (CAP) ≥280 dB/m and liver stiffness measurement (LSM)<10 kPa (i.e., indicating the absence of significant fibrosis), magnetic resonance imaging derived proton density fat fraction (MRI-PDFF) ≥10%), hemoglobin Alc (HbAlc) of less than 9.5%, and alanine aminotransferase (ALT) or aspartate aminotransferase (AST) values of ≤[…]. The pharmacodynamic (PD) objectives of this study were to evaluate the effects of ALT-801 on hepatic fat fraction, anthropometric parameters, lipid metabolism, metabolic markers, inflammatory markers, fibrosis markers, and lipotoxicity markers. The pharmacokinetic (PK) objectives of this study were to evaluate the effects of ALT-801 and metformin exposure (drug interactions) on the subjects (e.g., ALT-801 and metformin concentrations in blood over time).
After providing informed consent, subjects underwent a screening period of up to 35 days. Subjects were instructed on how to maintain their normal diets, alcohol consumption and physical activities and not to start any new diets, supplements, or exercise programs at any time while participating in the study. Counseling was provided on diet and exercise on the Day 1 visit and reinforced at subsequent visits. Study subjects were randomized 1:1:1:1 to one of the following treatment arms: 1) ALT-8011.2 mg SC once weekly for 12 weeks; 2) ALT-8011.8 mg SC once weekly for 12 weeks; 3) ALT-801 0.6 mg SC at week 1, 1.2 mg SC at week 2, 1.8 mg SC once weekly for 2 weeks (weeks 3 and 4), and 2.4 mg SC once weekly for weeks 5 through 12; or, 4) placebo SC once weekly for 12 weeks. Subjects were stratified by presence or absence of diabetes at baseline. Subjects in the treatment arm with a final therapeutic dose of 2.4 mg underwent a rapid 4-week dose escalation to improve tolerability and reduce the possibility of adverse events. […] See FIG. 7, second 2.4 mg column as compared to the first 2.4 mg column (this study). See WO 2022/125598. […]

`CC[C@H](C)[C@H](NC(=O)[C@H](Cc1ccccc1)NC(=O)[C@H](CCC(=O)O)NC(=O)[C@@H]1CCCCNC(=O)CC[C@H](NC(=O)[C@H](CC(=O)O)NC(=O)[C@H](CC(C)C)NC(=O)[C@H](Cc2ccc(O)cc2)NC(=O)[C@H](CCCCN)NC(=O)[C@H](CO)NC(=O)[C@H](Cc2ccc(O)cc2)NC(=O)[C@H](CC(=O)O)NC(=O)[C@H](CO)NC(=O)[C@@H](NC(=O)[C@H](Cc2ccccc2)NC(=O)[C@@H](NC(=O)CNC(=O)[C@H](CCC(N)=O)NC(=O)C(C)(C)NC(=O)[C@@H](N)Cc2c[nH]cn2)[C@@H](C)O)[C@H](C)O)C(=O)N[C@@H](CCCCNC(=O)C2O[C@@H](OCCCCCCCCCCCCCCCCCC(=O)O)C(O)C(O)[C@@H]2O)C(=O)N[C@@H](C)C(=O)N[C@@H](C)C(=O)N1)C(=O)N[C@@H](CCC(N)=O)C(=O)N[C@@H](Cc1c[nH]c2ccccc12)C(=O)N[C@@H](CC(C)C)C(=O)N[C@@H](CC(C)C)C(=O)N[C@@H](CCC(N)=O)C(=O)N[C@H](C(N)=O)[C@@H](C)O` (stereo partly drawn) [ALT-801, Pemvidutide]: the “phosphatidyl-ethanolamine (PE) glycerophospholipids level” value in assay [1] (1.8 mg) is listed as “significantly reduced atherosclerotic plaque forming phosphatidyl-ethanolamine (PE) glycerophospholipids level”. For the same molecule, the “pro-atherogenic lyso-PC levels” value in assay [1] (1.8 mg) is listed as “significantly reduced pro-atherogenic lyso-PC levels”. Also, the “number of VLDL and LDL particles and of smaller HDL particles (2D-NMR)” value in assay [1] (Day 43 and Day 84 vs Day -1) is “tend to be reduced”. The “serum lipid levels (glycerolipids, glycerophospholipids, sphingolipids)” value in assay [1] (within 12 weeks of treatment) is reported as “significantly reduced serum lipid levels”. The ALT reduction is −11.2% in assay [2] (all subjects, 1.2 mg); −13.8% in assay [2] (all subjects, 1.8 mg); −13.6% in assay [2] (all subjects, 'the 1.8 mg dose' as printed (second mention)); −17.8% in assay [2] (subjects with baseline ALT >=30 IU/L, 1.2 mg); −20.8% in assay [2] (subjects with baseline ALT >=30 IU/L, 1.8 mg); −27% in assay [2] (subjects with baseline ALT >=30 IU/L, 2.4 mg). For the same molecule, the “decline in serum ALT levels” value is on record as 27.0 IU/L in assay [2] (2.4 mg dose cohort) and “more than 17 IU/L” in assay [2] (all dose levels).
